Experiments:
Format in all cases: in vivo
[1] = test system: Blumeria graminis f. sp. tritici (Erysiphe graminis f. sp. tritici); experiment: Blumeria graminis f. sp. tritici / wheat / leaf disc preventative (powdery mildew on wheat); settings: foliar, wheat leaf segments cv. Kanzler, compared to untreated control leaf disks, read-out: disease control
Text: Blumeria graminis f. sp. tritici (Erysiphe graminis f. sp. tritici)/Wheat/Leaf Disc Preventative (Powdery Mildew on Wheat) Wheat leaf segments cv. Kanzler were placed on agar in a multiwell plate (24-well format) and sprayed with the formulated test compound diluted in water. The leaf disks were inoculated by shaking powdery mildew infected plants above the test plates 1 day after application.

Phakopsora pachyrhizi = Phakopsora pachyrhizi / soybean / leaf disk preventative (soybean rust); settings: foliar, soybean leaf disks, compared to untreated control leaf disks, read-out: disease control
Protocol: Phakopsora pachyrhizi/Soybean/Leaf Disk Preventative (Soybean Rust) Four-week old soybean plants are sprayed in a spray chamber with the formulated test compound diluted in water. Leaf disks are cut from treated plants and placed on agar into 24-well plates one day after application. Leaf disks are inoculated by spraying them with a spore suspension on their lower leaf surface. After an incubation period in a climate cabinet of 24-36 hours in darkness at 20° C. and 75% rh, the leaf disks are then kept at 20° C. with 12 h light/day and 75% rh. The percentage leaf disk area covered by disease is assessed when an appropriate level of disease appears on untreated check plants (12-14 days after application).

[2] = test system: Puccinia recondita f. sp. tritici; experiment: Puccinia recondita f. sp. tritici / wheat / leaf disc preventative (brown rust); settings: foliar, wheat leaf segments cv. Kanzler, compared to untreated control leaf disks, read-out: disease control
Protocol: Puccinia recondita f. sp. tritici/Wheat/Leaf Disc Preventative (Brown Rust) Wheat leaf segments cv. Kanzler were placed on agar in multiwell plates (24-well format) and sprayed with the formulated test compound diluted in water. The leaf disks were inoculated with a spore suspension of the fungus 1 day after application. The inoculated leaf segments were incubated at 19° C. and 75% rh under a light regime of 12 h light/12 h darkness in a climate cabinet and the activity of a compound was assessed as percent disease control compared to untreated when an appropriate level of disease damage appears in untreated check leaf segments (7-9 days after application).

[3] = test system: Puccinia recondita f. sp. tritici; experiment: Puccinia recondita f. sp. tritici / wheat / leaf disc curative (brown rust); settings: foliar, 24 h, wheat leaf segments cv. Kanzler, curative (applied 1 day after inoculation), compared to untreated control leaf disks, read-out: disease control
Protocol: Puccinia recondita f. sp. tritici/Wheat/Leaf Disc Curative (Brown Rust) Wheat leaf segments cv. Kanzler are placed on agar in multiwell plates (24-well format). The leaf segments are inoculated with a spore suspension of the fungus. Plates were stored in darkness at 19° C. and 75% rh. The formulated test compound diluted in water was applied 1 day after inoculation.

Measured: pest or weed control at 200 ppm

CCN(C)/C=N/c1cc(OC)c(C(O)(c2cccs2)C(F)(F)F)cc1C (stereo not drawn) [Compound E1.105]
≥ 80%: all assays above

CCN(C)/C=N/c1cc(OC)c(C(C)(O)c2ccccc2)cc1C (stereo not drawn) [Compound E1.007, N-ethyl-N′-[4-(1-hydroxy-1-phenyl-ethyl)-5-methoxy-2-methyl-phenyl]-N-methyl-formamidine]
≥ 80%: all assays above

C=CC(O)(c1cc(C)c(/N=C/N(C)CC)cc1OC)C(F)(F)F (stereo not drawn) [Compound E1.077]
≥ 80%: all assays above

CCN(C)/C=N/c1cc(OC)c(C(O)(Cn2ncc3ccccc32)C(F)(F)F)cc1C (stereo not drawn) [Compound E1.093]
≥ 80%: all assays above

CCN(C)/C=N/c1cc(OC)c(C(O)(C2CCCC2)C(F)(F)F)cc1C (stereo not drawn) [Compound E1.050]
≥ 80%: all assays above

CCN(C)/C=N/c1cc(OC)c(C(O)(Cc2ccc(F)cc2)C(F)(F)F)cc1C (stereo not drawn) [Compound E1.091]
≥ 80%: [1] | Phakopsora pachyrhizi | [3]

CCN(C)/C=N/c1cc(OC)c(C(O)(c2cnn(CC)c2)C(F)(F)F)cc1C (stereo not drawn) [Compound E1.111]
≥ 80%: Phakopsora pachyrhizi | [2] | [3]

CCN(C)/C=N/c1cc(OC)c(C(O)(Cc2ccc(C)cc2)C(F)(F)F)cc1C (stereo not drawn) [Compound E1.087]
≥ 80%: all assays above

CCN(C)/C=N/c1cc(OC)c(C(O)(C(C)C)C(F)(F)F)cc1C (stereo not drawn) [Compound E1.054, N-ethyl-N′-[4-[1-hydroxy-2-methyl-1-(trifluoromethyl)propyl]-5-methoxy-2-methyl-phenyl]-N-methyl-formamidine]
≥ 80%: all assays above

CCN(C)/C=N/c1cc(OC)c(C(O)(c2ccc(SC(F)F)cc2)C(F)(F)F)cc1C (stereo not drawn) [Compound E1.038]
≥ 80%: [1] | [3]

CCN(C)/C=N/c1cc(OC)c(C(O)(CC(C)C)C(F)(F)F)cc1C (stereo not drawn) [Compound E1.051]
≥ 80%: all assays above

CCN(C)/C=N/c1cc(OC)c(C(O)(Cc2ccnc(F)c2)C(F)(F)F)cc1C (stereo not drawn) [Compound E1.101]
≥ 80%: all assays above

CCN(C)/C=N/c1cc(OC)c(C(O)(CCC(C)C)C(F)(F)F)cc1C (stereo not drawn) [Compound E1.068]
≥ 80%: all assays above

CCN(C)/C=N/c1cc(OC)c([C@@](O)(c2ccccc2)C(F)(F)F)cc1C [Compound E1.015]
≥ 80%: all assays above

CCN(C)/C=N/c1cc(OC)c(C(O)C(F)(F)Cl)cc1C (stereo not drawn) [Compound E1.118]
≥ 80%: all assays above

CCN(C)/C=N/c1cc(OC)c(C(O)(c2ccccc2)C(F)F)cc1C (stereo not drawn) [Compound E1.005]
≥ 80%: all assays above

CCN(C)/C=N/c1cc(OC)c(C(O)c2ccccc2)cc1C (stereo not drawn) [Compound E1.123]
≥ 80%: all assays above

CCN(C)/C=N/c1cc(OC)c(C(O)(c2cc3ccccc3s2)C(F)(F)F)cc1C (stereo not drawn) [Compound E1.103]
≥ 80%: all assays above

CCN(C)/C=N/c1cc(OC)c(C(O)(Cc2ccccc2)C(F)(F)F)cc1C (stereo not drawn) [Compound E1.086]
≥ 80%: all assays above

C=C(C)CC(O)(c1cc(C)c(/N=C/N(C)CC)cc1OC)C(F)(F)F (stereo not drawn) [Compound E1.075]
≥ 80%: all assays above

CCN(C)/C=N/c1cc(OC)c(C(O)(Cn2nc(C)c(C)c2C)C(F)(F)F)cc1C (stereo not drawn) [Compound E1.095]
≥ 80%: all assays above

C=C(C)C(O)(c1cc(C)c(/N=C/N(C)CC)cc1OC)C(F)(F)F (stereo not drawn) [Compound E1.078]
≥ 80%: all assays above

CCN(C)/C=N/c1cc(OC)c(C(O)(c2cc(Cl)cc(Cl)c2)C(F)(F)F)cc1C (stereo not drawn) [Compound E1.013]
≥ 80%: [1] | [2] | [3]

CCN(C)/C=N/c1cc(OC)c(C(O)(Cc2cccc(F)n2)C(F)(F)F)cc1C (stereo not drawn) [Compound E1.102]
≥ 80%: [1] | Phakopsora pachyrhizi | [3]

CCN(C)/C=N/c1cc(OC)c(C(O)(C=C(C)C)C(F)(F)F)cc1C (stereo not drawn) [Compound E1.076]
≥ 80%: all assays above

CCN(C)/C=N/c1cc(OC)c(C(O)(Cn2cc3ccccc3n2)C(F)(F)F)cc1C (stereo not drawn) [Compound E1.092]
≥ 80%: [1] | [2] | [3]

CCN(C)/C=N/c1cc(OC)c(C(O)(C2CCC2)C(F)(F)F)cc1C (stereo not drawn) [Compound E1.069]
≥ 80%: all assays above

CCN(C)/C=N/c1cc(OC)c(C(O)(C2=CCCC2)C(F)(F)F)cc1C (stereo not drawn) [Compound E1.079]
≥ 80%: [1] | [2] | [3]

CCN(C)/C=N/c1cc(OC)c(C(O)(Cn2cncn2)C(F)(F)F)cc1C (stereo not drawn) [Compound E1.098]
≥ 80%: [1] | [2] | [3]

CCCCC(O)(c1cc(C)c(/N=C/N(C)CC)cc1SC)C(F)(F)F (stereo not drawn) [Compound E1.114]
≥ 80%: [1] | Phakopsora pachyrhizi | [3]

CCN(C)/C=N/c1cc(OC)c(C(O)(c2cccc(SC)c2)C(F)(F)F)cc1C (stereo not drawn) [Compound E1.042]
≥ 80%: [1] | [3]

CCN(C)/C=N/c1cc(OC)c(C(O)(c2cnn(C(C)C)c2)C(F)(F)F)cc1C (stereo not drawn) [Compound E1.110]
≥ 80%: [2] | [3]

CCN(C)/C=N/c1cc(OC)c(C(O)(Cn2nc(C)c(Cl)c2C)C(F)(F)F)cc1C (stereo not drawn) [Compound E1.096]
≥ 80%: Phakopsora pachyrhizi

CCN(C)/C=N/c1cc(OC)c(C(O)(c2cnn(-c3ccccc3)c2)C(F)(F)F)cc1C (stereo not drawn) [Compound E1.109]
≥ 80%: [1] | [2] | [3]

COc1cc(/N=C/N(C)C2CC2)c(C)cc1C(O)(c1ccccc1)C(F)(F)F (stereo not drawn) [Compound E1.008]
≥ 80%: [2] | [3]

COc1cc(/N=C/N(C)C(C)C)c(C)cc1C(O)(C1CCCC1)C(F)(F)F (stereo not drawn) [Compound E1.060]
≥ 80%: [1] | [2] | [3]

CCN(C)/C=N/c1cc(OC)c(C(O)(C2=CCCCC2)C(F)(F)F)cc1C (stereo not drawn) [Compound E1.080]
≥ 80%: [1] | [2] | [3]

From US10723695B2, “Microbiocidal phenylamidine derivatives” (SYNGENTA PARTICIPATIONS AG, priority 2015, dated 2020)
